Measurements published in patent US12213957B2, “Use of aminoacetonitrile compounds for the treatment of infection and disease” (PITNEY PHARMACEUTICALS PTY LIMITED, priority 2020, dated 2025).
“And” between values parts separate entries of the source, which are not always exact repeats. Identical values can stand only once. Like-named read-outs stand apart in the source and are kept apart here.

Legend:
[1] = system: VERO cells; test: cells; details: Chlorocebus sabaeus, 120 h, read-out: 1050 (estimated from the 8 μM and 40 μM values)
[2] = Blood plasma levels in human patients; format: in vivo; details: monepantel as Zolvix 5 mg/kg bw daily
Procedure: (§1) In a Phase 1 b clinical trial, monepantel administered as Zolvix daily to four human patients (PA02, PA04, PA06 and PA07) at 5 mg/kg bw provided an anticancer effect by computerised tomography (CT) scanning according to RECIST1.1 criteria. […] Evidence of mTOR pathway signalling inhibition in these patients was supported by the finding of decreased eurkaryotic translation initiation factor 4E-binding protein 1 (EIF-4EBP1) phosphorylation levels from the preparations of PBMCs from PA02, PA04 and PA06 (FIG. 1B). EIF-4EIBP1 phosphorylation levels were not assayed from preparations of PBMCs from PA07.
Blood plasma monepantel and monepantel sulfone levels of all four patients were recorded at intervals throughout treatment (Table 2).

[3] = system: treatment naïve B cell lymphoma; test: Phase 2 veterinary clinical trial, RECIST 1.1 tumour response; format: in vivo, dog
Procedure: Superficial tumour lesions were measured with calipers, while lesions within the body were assessed by X-Ray, ultrasound, computer tomography (CT) and/or physical palpitation. Baseline Day 0 (D0) predose caliper, X-Ray, ultrasound and CT measurements where available as well as a complete physical examination were recorded.

[4] = Blood plasma levels in pet dogs of the veterinary trial; format: in vivo, dog; details: plasma, oral, 179 mg/kg bw; dog 003-001 that achieved a partial response; read-out: monepantel blood plasma level
Procedure: In a Phase 2 veterinary clinical trial, monepantel was administered as tablets daily to six pet dog patients (dog identification numbers: 001-001, 001-002, 001-003, 003-001, 004-002 and 004-003) with treatment naïve B cell lymphoma at a target dose of 179 mg/kg bw. Superficial tumour lesions were measured with calipers, while lesions within the body were assessed by X-Ray, ultrasound, computer tomography (CT) and/or physical palpitation. Baseline Day 0 (D0) predose caliper, X-Ray, ultrasound and CT measurements where available as well as a complete physical examination were recorded.
An inverse correlation between RECIST1.1 response and blood plasma levels of monepantel and monepantel sulfone was evident. The one dog (003-001) that achieved a partial response, recorded monepantel and […] of 0.1 and 6.7 μM, respectively.

[5] = system: ribosomal protein S6 kinase beta-1 (RPS6KB1); test: RPS6KB1 phosphorylation levels in patients' PBMCs (mTOR signalling); format: in vivo, human; details: 5 mg/kg bw daily
[6] = system: VERO cells infected with SARS-CoV-2; format: cell-based; details: approximately 5 μM MPL
[7] = system: SARS-CoV-2; format: cell-based; details: VERO cells
[8] = system: cancer; test: Phase 1b clinical trial, RECIST1.1 by computerised tomography; format: in vivo, human; details: monepantel as Zolvix daily 5 mg/kg bw
Procedure: as §1

[9] = system: VERO cells
[10] = system: eurkaryotic translation initiation factor 4E-binding protein 1 (EIF-4EBP1); test: EIF-4EBP1 phosphorylation levels in patients' PBMCs (mTOR signalling); format: in vivo, human; details: 5 mg/kg bw daily
Procedure: as §1

[11] = system: SARS-CoV-2; format: cell-based; details: Calu-3 human cells, concentrations from 3.00 μM down to 0.013 μM
[12] = system: SARS-CoV-2; format: cell-based; details: 0.032 μM and 0.064 μM compared to 40 μM and 8 μM values, p<0.05 and <0.001
[13] = pet dogs, monepantel tablets daily, target dose 179 mg/kg bw, one value per dog, 179 mg/kg
[14] = six pet dogs, tablets daily, 179 mg/kg bw
[15] = PA02, after three days of treatment
[16] = PA04, after three days of treatment
[17] = PA06, after three days of treatment

## C[C@](C#N)(COc1cc(C#N)ccc1C(F)(F)F)NC(=O)c1ccc(SC(F)(F)F)cc1 [MPL, N-[(1S)-1-Cyano-2-(5-cyano-2-trifluoromethyl-phenoxy)-1-methyl-ethyl]-4-trifluoromethylsulfanyl-benzamide]
[1]
  IC50: ~30 µM
[2]; 0.25 h, average of patients
  Blood plasma level of monepantel, Average: 0.010 ∞M
[2]; 0.25 h, individual patients
  Blood plasma level of monepantel: 6.46 ng/ml and 0 ng/ml (2×) and 12.2 ng/ml
[2]; 0.5 h, average of patients
  Blood plasma level of monepantel, Average: 0.051 ∞M
[2]; 0.5 h, individual patients
  Blood plasma level of monepantel: 39.4 ng/mL and 16.1 ng/mL and 10.5 ng/mL and 31 ng/mL
[2]; 1 h, average of patients
  Blood plasma level of monepantel, Average: 0.137 ∞M
[2]; 1 h, individual patients
  Blood plasma level of monepantel: 110 ng/mL and 46.2 ng/mL and 42.1 ng/mL and 61 ng/mL
[2]; 2 h, average of patients
  Blood plasma level of monepantel, Average: 0.298 ∞M
[2]; 2 h, individual patients
  Blood plasma level of monepantel: 99.1 ng/mL and 171 ng/mL and 112 ng/mL
[2]; 4 h, average of patients
  Blood plasma level of monepantel, Average: 0.353 ∞M
[2]; 4 h, individual patients
  Blood plasma level of monepantel: 104 ng/mL and 234 ng/mL and 144 ng/mL and 187 ng/mL
[2]; 8 h, average of patients
  Blood plasma level of monepantel, Average: 0.145 ∞M
[2]; 8 h, individual patients
  Blood plasma level of monepantel: 62.1 ng/mL and 63.6 ng/mL and 108 ng/mL and 40.2 ng/mL
[2]; 12 h, average of patients
  Blood plasma level of monepantel, Average: 0.064 ∞M
[2]; 12 h, individual patients
  Blood plasma level of monepantel: 26.9 ng/mL and 24.1 ng/mL and 52.5 ng/mL and 18.6 ng/mL
[2]; 24 h, average of patients
  Blood plasma level of monepantel, Average: 0.030 ∞M
[2]; 24 h, individual patients
  Blood plasma level of monepantel: 13.7 ng/mL and 11.6 ng/mL and 21.8 ng/mL and 9.95 ng/mL
[2]; pre-dose D3, average of patients
  Blood plasma level of monepantel, Average: 10.7 ng/ml and 0.023 ∞M
[2]; pre-dose D3, individual patients
  Blood plasma level of monepantel: 16.4 ng/mL and 8.07 ng/mL and 9.99 ng/mL and 8.33 ng/mL
[2]; pre-dose D4, average of patients
  Blood plasma level of monepantel, Average: 9.2 ng/ml and 0.019 ∞M
[2]; pre-dose D4, individual patients
  Blood plasma level of monepantel: 14.7 ng/mL and 6.98 ng/mL and 8.65 ng/mL and 6.44 ng/mL
[2]; pre-dose D5, average of patients
  Blood plasma level of monepantel, Average: 6.9 ng/ml and 0.015 ∞M
[2]; pre-dose D5, individual patients
  Blood plasma level of monepantel: 9.94 ng/mL and 6.86 ng/mL and 5.72 ng/mL and 5.03 ng/mL
[2]; pre-dose D6, average of patients
  Blood plasma level of monepantel, Average: 6.3 ng/ml and 0.013 ∞M
[2]; pre-dose D6, individual patients
  Blood plasma level of monepantel: 9.99 ng/mL and 7.22 ng/mL and 4.62 ng/mL and 3.34 ng/mL
[2]; pre-dose D7, average of patients
  Blood plasma level of monepantel, Average: 5.4 ng/ml and 0.011 ∞M
[2]; pre-dose D7, individual patients
  Blood plasma level of monepantel: 7.42 ng/mL and 6.39 ng/mL and 4.58 ng/mL and 3.32 ng/mL
[2]; pre-dose D14, average of patients
  Blood plasma level of monepantel, Average: 4.4 ng/ml and 0.009 ∞M
[2]; pre-dose D14, individual patients
  Blood plasma level of monepantel: 4.85 ng/mL and 5.25 ng/mL and 3.23 ng/mL
[2]; pre-dose D21, average of patients
  Blood plasma level of monepantel, Average: 3.8 ng/ml and 0.008 ∞M
[2]; pre-dose D21, individual patients
  Blood plasma level of monepantel: 4.34 ng/mL and 3.16 ng/mL
[2]; pre-dose D28, average of patients
  Blood plasma level of monepantel, Average: 3.8 ng/ml and 0.008 ∞M
[2]; pre-dose D28, individual patients
  Blood plasma level of monepantel: 4.65 ng/mL and 2.96 ng/mL
[2]; plasma, oral, 5 mg/kg bw, 0.25 h, average of patients, read-out: Blood plasma level of monepantel, Average
  concentration at 0.25 h: 0.0047 µg/mL
[2]; plasma, oral, 5 mg/kg bw, 0.5 h, average of patients, read-out: Blood plasma level of monepantel, Average
  concentration at 0.5 h: 0.0243 µg/mL
[2]; plasma, oral, 5 mg/kg bw, 1 h, average of patients, read-out: Blood plasma level of monepantel, Average
  concentration at 1 h: 0.0648 µg/mL
[2]; plasma, oral, 5 mg/kg bw, 2 h, average of patients, read-out: Blood plasma level of monepantel, Average
  concentration at 2 h: 0.141 µg/mL
[2]; plasma, oral, 5 mg/kg bw, 2 h, individual patients, read-out: Blood plasma level of monepantel
  concentration at 2 h: 0.183 µg/mL
[2]; plasma, oral, 5 mg/kg bw, 4 h, average of patients, read-out: Blood plasma level of monepantel, Average
  concentration at 4 h: 0.167 µg/mL
[2]; plasma, oral, 5 mg/kg bw, 8 h, average of patients, read-out: Blood plasma level of monepantel, Average
  concentration at 8 h: 0.0685 µg/mL
[2]; plasma, oral, 5 mg/kg bw, 12 h, average of patients, read-out: Blood plasma level of monepantel, Average
  concentration at 12 h: 0.0305 µg/mL
[2]; plasma, oral, 5 mg/kg bw, 24 h, average of patients, read-out: Blood plasma level of monepantel, Average
  concentration at 24 h: 0.0143 µg/mL
[3]; [13]
  RECIST 1.1 tumour response D14 Target Lesions: PR (PR = partial response)
  RECIST 1.1 tumour response Overall: PR (PR = partial response)
[3]; pet dogs, tablets daily, 179 mg/kg bw
  target superficial lymph node caliper measurements at D28: four of four dogs achieving stable target superficial lymph node caliper measurements
[3]; [14]
  RECIST 1.1 responses of the six dogs at D14: One dog achieved a partial response, four dogs achieved stable disease and one dog had progressive disease
  anti-cancer effect at D14: strong anti-cancer effect
[4]
  concentration at 14 day: 0.1 µM
[5]; PA02, PA06 and PA07, after seven days of treatment
  reduction of PBMC RPS6KB1 phosphorylation levels relative to pre-treatment: 85.6%
[5]; [15]
  reduction of PBMC RPS6KB1 phosphorylation levels relative to pre-treatment: 27.3%
[5]; [16]
  reduction of PBMC RPS6KB1 phosphorylation levels relative to pre-treatment: 28.6%
[5]; [17]
  reduction of PBMC RPS6KB1 phosphorylation levels relative to pre-treatment: 81.2%
[5]; four patients
  mTOR signalling (decreased RPS6KB1 phosphorylation in PBMCs): inhibited in all four patients
[6]
  protection against cell death following infection with SARS-CoV-2: protected VERO cell against cell death
[7]; MPL 0.064 μM
  SARS-CoV-2 infectivity (TCID50) compared to no treatment: significantly reduces SARS-CoV-2 infectivity
[7]; MPL 0.137 μM (greatest effect)
  SARS-CoV-2 infectivity (TCID50, repeat experiment) compared to no treatment: significantly reduces SARS-CoV-2 infectivity
[7]; MPL 0.411 μM and 0.046 μM
  SARS-CoV-2 infectivity (TCID50, repeat experiment): significantly reduced SARS-CoV-2 infectivity
[7]; MPL 0.32, 1.6 and 8.0 μM
  SARS-CoV-2 infectivity (TCID50): did not significantly reduce
[8]; patient PA07
  RECIST1.1 response by CT: progressive disease
[8]; patients PA02, PA04 and PA06
  RECIST1.1 response by CT: stable disease
[9]
  effect upon SARS-CoV-2 infected VERO cells (LDH): no apparent effect
  toxicity caused by SARS-CoV-2: appeared to increase toxicity
  toxicity to Vero cells (LDH): significant toxicity
  toxicity to uninfected VERO cells: some toxicity
[9]; African green monkey
  SARS-CoV-2 toxicity: does not apparently increase SARS-CoV-2 toxicity
[10]; PA02, after seven days of treatment
  reduction of PBMC EIF-4EBP1 phosphorylation levels relative to pre-treatment: 85.6%
[10]; [15]
  reduction of PBMC EIF-4EBP1 phosphorylation levels relative to pre-treatment: 38.5%
[10]; [16]
  reduction of PBMC EIF-4EBP1 phosphorylation levels relative to pre-treatment: 96.6%
[10]; [17]
  reduction of PBMC EIF-4EBP1 phosphorylation levels relative to pre-treatment: 34.4%
[11]
  SARS-CoV-2 infectivity (TCID50): reduced SARS-CoV-2 infectivity
[12]
  SARS-CoV-2 RNA concentrations in the media (qPCR): significantly decrease
